{"source": "patent US12433877B2", "about": "“Sustained release drug delivery systems and related methods” (Durect Corporation, priority 2021, dated 2025)", "key": {"[1]": {"tested_on": "patients, abdominal surgeries", "experiment": "Adverse reactions pooled from laparoscopic, laparoscopically-assisted and open abdominal surgery studies", "assay_type": "in vivo, human", "details": "adjusted percentage"}, "[2]": {"tested_on": "patients undergoing a variety of general surgical procedures", "experiment": "Example 18: general surgical procedures (laparotomy, laparoscopic cholecystectomy, colectomy), pain and opioid use", "assay_type": "in vivo, human", "details": "ITT; for Repeated Measures Pain Intensity on Movement 0-72 Hours, LS Mean: All Timepoints 0-72 hr, LogPad scores only"}}, "note": "Counter-ions that a name gives are not always drawn.", "data": [{"compound": "CCCCN1CCCCC1C(=O)Nc1c(C)cccc1C", "note": "(stereo not drawn) [Bupivacaine HCl]", "values": [{"measurement": "Adverse reaction: Abdominal distension", "setting": "[1]", "result": "(4.8%)"}, {"measurement": "Adverse reaction: Abdominal pain", "setting": "[1]", "result": "(0.5%)"}, {"measurement": "Adverse reaction: Abdominal pain upper", "setting": "[1]", "result": "(1.0%)"}, {"measurement": "Adverse reaction: Anemia", "setting": "[1]", "result": "(0.7%)"}, {"measurement": "Adverse reaction: Body temperature increased", "setting": "[1]", "result": 0, "unit": "%"}, {"measurement": "Adverse reaction: Chest pain", "setting": "[1]", "result": "(0.5%)"}, {"measurement": "Adverse reaction: Constipation", "setting": "[1]", "result": "(41.8%)"}, {"measurement": "Adverse reaction: Cough", "setting": "[1]", "result": "(1.8%)"}, {"measurement": "Adverse reaction: Diarrhea", "setting": "[1]", "result": "(5.5%)"}, {"measurement": "Adverse reaction: Dizziness", "setting": "[1]", "result": "(30.1%)"}, {"measurement": "Adverse reaction: Dry mouth", "setting": "[1]", "result": "(1.0%)"}, {"measurement": "Adverse reaction: Dysgeusia", "setting": "[1]", "result": "(16.9%)"}, {"measurement": "Adverse reaction: Dyspepsia", "setting": "[1]", "result": "(1.9%)"}, {"measurement": "Adverse reaction: Flatulence", "setting": "[1]", "result": "(4.0%)"}, {"measurement": "Adverse reaction: Headache", "setting": "[1]", "result": "(32.3%)"}, {"measurement": "Adverse reaction: Hypertension", "setting": "[1]", "result": "(3.6%)"}, {"measurement": "Adverse reaction: Hypokalemia", "setting": "[1]", "result": "(1.4%)"}, {"measurement": "Adverse reaction: Ileus", "setting": "[1]", "result": "(0.7%)"}, {"measurement": "Adverse reaction: Incision site erythema", "setting": "[1]", "result": "(2.7%)"}, {"measurement": "Adverse reaction: Incision site hematoma", "setting": "[1]", "result": "(1.7%)"}, {"measurement": "Adverse reaction: Incision site hemorrhage", "setting": "[1]", "result": "(3.0%)"}, {"measurement": "Adverse reaction: Incision site infection", "setting": "[1]", "result": "(2.5%)"}, {"measurement": "Adverse reaction: Insomnia", "setting": "[1]", "result": "(2.9%)"}, {"measurement": "Adverse reaction: Musculoskeletal pain", "setting": "[1]", "result": "(4.9%)"}, {"measurement": "Adverse reaction: Nasopharyngitis", "setting": "[1]", "result": 0, "unit": "%"}, {"measurement": "Adverse reaction: Nausea", "setting": "[1]", "result": "(59.6%)"}, {"measurement": "Adverse reaction: Oropharyngeal pain", "setting": "[1]", "result": "(1.0%)"}, {"measurement": "Adverse reaction: Pain in extremity", "setting": "[1]", "result": "(2.8%)"}, {"measurement": "Adverse reaction: Paresthesia", "setting": "[1]", "result": "(13.1%)"}, {"measurement": "Adverse reaction: Post procedural contusion (bruising)", "setting": "[1]", "result": "(61.8%)"}, {"measurement": "Adverse reaction: Post procedural discharge", "setting": "[1]", "result": "(4.4%)"}, {"measurement": "Adverse reaction: Procedural pain", "setting": "[1]", "result": "(17.8%)"}, {"measurement": "Adverse reaction: Pruritus", "setting": "[1]", "result": "(18.7%)"}, {"measurement": "Adverse reaction: Pyrexia", "setting": "[1]", "result": "(5.7%)"}, {"measurement": "Adverse reaction: Rash", "setting": "[1]", "result": "(3.8%)"}, {"measurement": "Adverse reaction: Somnolence", "setting": "[1]", "result": "(41.0%)"}, {"measurement": "Adverse reaction: Urinary retention", "setting": "[1]", "result": "(1.2%)"}, {"measurement": "Adverse reaction: Vomiting", "setting": "[1]", "result": "(21.0%)"}, {"measurement": "Adverse reaction: Wound dehiscence", "setting": "[1]", "result": "(1.5%)"}, {"measurement": "Repeated Measures Pain Intensity on Movement 0-72 Hours, LS Mean", "setting": "[2]; Cohort 1 (Laparotomy)", "result": 5.9}, {"measurement": "Total Morphine-equivalent Opioid Medication Use, MEDD 0-72 hours, Median", "setting": "[2]; Cohort 1 (Laparotomy)", "result": 63.0, "unit": "mg"}, {"measurement": "Repeated Measures Pain Intensity on Movement 0-72 Hours, LS Mean", "setting": "[2]; Cohort 2 (Laparoscopic Cholecystectomy)", "result": 3.6}]}]}
